Measurements from patent US20260258003A1, “SLACK-ACTIVATING COMPOUNDS AND THEIR MEDICAL USE” (Johann Wolfgang Goethe-Universität Frankfurt am Main, priority 2023, published 2026).

Tests used:
[1] = tested on: heart rate and breath rate of mice; experiment: Pulse oximetry on conscious, freely moving mice; format: in vivo; details: 10 mg/kg i.p., observation period of 30 min
Procedure: Finally, potential side effects of Compound 6 were assessed by measuring cardiovascular functions by pulse oximetry.

IB4-binding DRG neurons = experiment: Whole-cell current-clamp recordings on IB4-binding DRG neurons; format: cell-based, mice; details: 50 μM
Procedure: A DRG neuron primary cell culture was prepared and stimulated with an inflammatory soup overnight to induce hyperexcitability. In brief, naïve C57BL/6N mice (age 4-8 weeks) were killed by CO2 inhalation and lumbar (L1-L5) DRGs were transferred to hanks' balanced salt solution (Gibco, Thermo Fisher Scientific). After incubation with 500 U/mL collagenase IV and 2.5 U/ml dispase II (both from Sigma Aldrich) for 60 min, including carefully shaking every 20 min, DRGs were washed and gently triturated twice with a fire-polished Pasteur pipette in neurobasal medium (Gibco, Thermo Fisher Scientific) including 10% FBS and 0.5 mM GlutMax (Gibco, Thermo Fisher Scientific). Dissociated DRGs were seeded onto poly-D-lysine-coated (100 μg/mL) coverslips and cultured in neurobasal medium supplemented with 2% B27 (Gibco, Thermo Fisher Scientific), 1% penicillin/streptomycin and 0.5 mM GlutMax in 5% CO2 at 37° C.
In order to simulate a pathological state, DRG neuronal cultures were incubated with an inflammatory soup (histamine: 10 μM, PGE2: 10 μM, serotonin: 10 μM, bradykinin: 10 μM)^33 overnight and performed recordings on cells that bind isolectin B4, a marker of nonpeptidergic C-fiber neurons including the itch-sensitive neuronal populations (NP1-NP3)^4 in mice. Before recording, DRG neurons were preincubated with 10 μg/mL FITC-conjugated IB4 (Sigma-Aldrich) for 5-10 min to select for Slack-expressing neurons.
Whole-cell current clamp recordings were obtained using an EPC 9 amplifier combined with Patchmaster software (HEKA Electronics, Lambrecht/Pfalz, Germany). General settings, pipette and extracellular solutions were used as described above. Evoked action potentials (AP) were elicited by 10 ms current injections starting at 0 pA in 20 pA increments to determine electrophysiological parameters. Action potential (AP) firing was induced by depolarizing current pulses (200-950 pA at 150 pA intervals, 1000 ms duration). […] Number of APs before and after compound application were counted at the same current injection step.

[2] = tested on: chloroquine-induced scratching behavior of mice; experiment: Chloroquine-induced itch model, topical application of creme; format: in vivo; details: 5% in hydrophilic creme (Basiscreme DAC), topical 30 min prior to s.c. chloroquine
Procedure: Animals: Experiments were performed in 8-16 week-old C57BL/6N mice (Charles River, Sulzfeld, Germany) of either sex. The animals were housed under a 12 h light/dark cycle with access to food and water ad libitum. All experiments adhered to the Animal Research: Reporting on In Vivo Experiments (ARRIVE) guidelines and were approved by and conducted in accordance with the regulations of the local Animal Welfare authorities (Regierungspräsidium Darmstadt, Germany; approval number V54-19c20/15-FR/2011). All behavioral studies were conducted during the light cycle of the day at room temperature (20-24° C.) by an observer blinded for the treatment of the animals.
Drug formulation: A creme formulation of Compound 6 and Compound 21 was prepared by mixing a hydrophilic creme (Basiscreme DAC) with 5% of each Slack activator.
Behavioral assessment: Three to four days before the day of the experiment, the fur on the dorsolateral aspect of the neck was shaved under brief isoflurane anesthesia. On the testing day, Compound 6 creme, Compound 21 creme, or creme vehicle were applied topically on the shaved region of the neck under brief isoflurane anesthesia and the mice were habituated to a Plexiglas cylinder (30 cm in diameter) for 30 min immediately thereafter. […] The number of scratching bouts directed towards the nape of the neck was assessed over 30 min by videotaping.

[3] = Microsomal stability assay in liver microsomes; format: in vitro ADME, Sprague-Dawley rats; details: 10 μM, rat liver microsomes
Procedure: For Compound 10, the metabolic stability in liver microsomes as shown in Table 4 was determined by the following assay. The test compound was dissolved in DMSO (1 mM). The solubilized test compound (5 μL, final concentration 10 μM) was preincubated at 37° C. in 432 μL of phosphate buffer (0.1 M, pH=7.4) together with 50 μL of NADPH regenerating system (30 mM glucose-6-phosphate, 4 U/mL glucose 6-phosphate dehydrogenase, 10 mM NADP, 30 mM MgCl2). After 5 min, the reaction was started by the addition of 13 μL of microsome mix from the liver of Sprague-Dawley rats (Invitrogen; 20 mg protein/mL in 0.1 M phosphate buffer) in a shaking water bath at 37° C. The reaction was stopped by adding 500 μL of ice-cold methanol at 0, 15, 30, and 60 min. The samples were centrifuged at 5000×g for 5 min at 4° C., and the test compound was quantified from the supernatants by HPLC: the composition of the mobile phase was adapted to the test compound in a range of MeOH 40-90% and water (0.1% formic acid) 10-60%. Flow rate: 1 mL/min; stationary phase: Purospher STAR, RP18, 5 μm, 125×4; precolumn: Purospher STAR, RP18, 5 μm, 4×4; detection wavelength: 254 and 280 nm; injection volume: 50 μL. Control samples were performed to check the test compound's stability in the reaction mixture. First control was without NADPH, which is needed for the enzymatic activity of the microsomes, second control was with inactivated microsomes (incubated for 20 min at 90° C.), and third control was without the test compound (to determine the baseline). The amounts of the test compound were quantified by an external calibration curve. Data are expressed as the mean±SEM remaining compound from three independent experiments. In vitro half-life was calculated by a logarithmic-linear transformation of the remaining amounts of nonmetabolized test compound versus time.

muscarine M3 receptor = molecular target: T1, muscarine M3 receptor (Homo sapiens, UniProt P20309); experiment: SafetyScreen44 binding; details: substantial = higher than 50%
T1 construct: Eurofins SafetyScreen44

[4] = injection of small currents (0-220 pA)

T1 sequence (P20309 whole entry): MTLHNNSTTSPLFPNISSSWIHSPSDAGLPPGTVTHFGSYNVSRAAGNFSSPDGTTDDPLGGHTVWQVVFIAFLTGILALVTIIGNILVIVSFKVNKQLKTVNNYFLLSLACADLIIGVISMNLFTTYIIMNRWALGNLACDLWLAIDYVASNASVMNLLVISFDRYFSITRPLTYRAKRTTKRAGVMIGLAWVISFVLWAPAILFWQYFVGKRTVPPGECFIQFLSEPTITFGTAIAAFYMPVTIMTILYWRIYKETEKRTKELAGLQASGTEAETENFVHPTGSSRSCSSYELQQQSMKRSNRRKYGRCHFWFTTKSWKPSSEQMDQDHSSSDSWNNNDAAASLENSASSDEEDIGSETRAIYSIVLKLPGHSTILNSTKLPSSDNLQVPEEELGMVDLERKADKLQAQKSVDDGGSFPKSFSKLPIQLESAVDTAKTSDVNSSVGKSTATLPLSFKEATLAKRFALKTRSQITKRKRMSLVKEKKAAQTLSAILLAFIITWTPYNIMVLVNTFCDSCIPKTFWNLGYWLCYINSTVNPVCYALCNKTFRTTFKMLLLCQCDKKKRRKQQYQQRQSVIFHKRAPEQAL

With `O=C(O)COCCN1CCN(C2=Nc3ccccc3Oc3ccc(Cl)cc32)CC1` [Compound 6, 2-(2-(4-(2-Chlorodibenzo[b,f][1,4]oxazepin-11-yl)piperazin-1-yl)ethoxy) acetic acid] the breath rate [1] was “did neither affect”, the heart rate [1] was “did neither affect” and the “number of AP fired” value (IB4-binding DRG neurons; current injections 200-950 pA, inflammatory soup overnight) was “profound decrease”. The AP amplitude (IB4-binding DRG neurons; [4]) was “significantly lower”, the rheobase (IB4-binding DRG neurons; [4]) was “significantly increased” and the “chloroquine-induced scratching behavior after topical application” value [2] was “significantly ameliorated scratching behavior”.

In the case of `O=c1nc(CN2CCN(C3=Nc4ccccc4Oc4ccc(Cl)cc43)CC2)[nH][nH]1` [Compound 10, 5-((4-(2-Chlorodibenzo[b,f][1,4]oxazepin-11-yl)piperazin-1-yl)methyl)-1,2-dihydro-3H-1,2,4-triazol-3-one], the “Metabolic stability (remaining compound)” value ([3]; 15 min) was 55%, the “Metabolic stability (remaining compound)” value ([3]; 30 min) was 35% and the “Metabolic stability (remaining compound)” value ([3]; 60 min) was 16%.

Work on `CN1CCN(C2=Nc3ccccc3Oc3ccc(Cl)cc32)CC1` [Loxapine, 2-chloro-11-(4-methylpiperazin-1-yl)dibenzo[b,f][1,4]oxazepine, reference compound] yielded an inhibition at 10 µM (muscarine M3 receptor) of over 50%.
